The results in this text go back to patent publication US11434537B2, “Biomarker for prognosis of colorectal cancer” (NATIONAL CHENG KUNG UNIVERSITY, priority 2020, dated 2022).

Holding throughout (type): cell-based, human
One assay relates to LC3 puncta. The assay is described as follows: LC3 puncta formation by immunofluorescent assay. Conditions: 10 μM, SW480 cells. As to the method:
(§1) FIGS. 14(a) to 14(f) show the involvement of autophagy in miR-338-5p-related CRC migration and invasion in vitro. […] LC3 puncta were labelled with anti-LC3 antibody and fluorescent isothiocyanate-conjugated goat anti-rabbit IgG (green fluorescence). SW480 cell nuclei were stained with Hoechst 33258 (blue fluorescence). Images were photographed using florescent microscopy (the scale bar represents 10 μm). Data are presented as median (IQR) (n=5) (P value was analyzed using Mann-Whitney tests). […] (100 nM). […] Data are presented as median (IQR) (n=5) (P value was analyzed using Mann-Whitney tests). The scale bar represents 50 μm. […] Number of migrated cells was counted after 24 h. The scale bar represents 100 μm. Data are expressed as median (IQR) (n=6) (P value was analyzed using MannWhitney tests). […] The scale bar represents 50 μm. Data are expressed as means±SEM (n=8) (P value was analyzed using t tests).
(§2) To clarify the mechanism(s) underlying miR-338-5p induced migration and invasion of CRC, the involvement of autophagy was assessed. Specifically, the LC3 puncta (microtubule associated protein 1A/1B-LC3) formation and LC3 type II (LC3-II) protein expression were examined in cells treated with amiodarone (an autophagy inducer) by immunofluorescent assay.

The subject of another assay is LC3-II. The assay is described as follows: Western blot of LC3-II (autophagy). The settings on record: 10 μM, 48 h, CRC cells (SW480, HCT116). On the procedure: as §1
FIGS. 15(a) to 15(c) show the involvement of autophagy or EMT pathway in miR-338-5p-related CRC migration in vitro. […] Representative results of Transwell assays are also shown. […] Data are presented as means±SEM (n=8) (P values were analyzed using t tests). […] The number of migrated cells is shown as means±SEM (n=8) (P values were analyzed using t tests).
To clarify the mechanism(s) underlying miR-338-5p induced migration and invasion of CRC, the involvement of autophagy was assessed. […]
Background: A western blot detects proteins with antibodies after separation by electrophoresis.

Assay [1] deals with HCT116 cells. The assay is described as follows: Wound-healing and Transwell migration assays, HCT116. The settings on record: 10 μM for 48 h, HCT116 stable cells, wound healing 24 h (FIG. 14(e)). As to the method: Then, HCT116 cells transfected with miR-338-5p were assessed for cell migration in vitro with a wound-healing assay analyzed at 24 h and a Transwell assay analyzed at 48 h (Corning, Corning City, N.Y.). Cell invasion in vitro was estimated using a Transwell assay, in which cells were seeded on Transwell columns coated with a Matrigel membrane (BD Biosciences, San Jose, Calif.). Then, cells on the bottom of membrane were counted after 96 h. […] Thus, miR-338-5p promotes CRC migration and invasion in vitro.

The next assay deals with SW480 cells. The experiment in a line: Transwell migration assay, SW480. Conditions: 10 μM, Transwell (FIG. 14(c)).
Assay [2] has as its system HCT116 cells. The assay is described as follows: Transwell invasion assay, HCT116. The settings on record: amiodarone-treated HCT116 cells, Transwell invasion 48 h (FIG. 14(f)). On the procedure: as §1, §2

Each structure is given as a SMILES string.

Take `CCCCc1oc2ccccc2c1C(=O)c1cc(I)c(OCCN(CC)CC)c(I)c1` [Amiodarone, amiodarone]: the LC3 puncta formation result in the assay with LC3 puncta is reported as “induced LC3 puncta formation”. The LC3-II expression entry with LC3-II is reported as “activated LC3-II expression”. In addition, the cell migration entry in the assay on HCT116 cells [1] and in the assay on SW480 cells was “inhibition of cell migration” each time. Further, in the assay on HCT116 cells [2], the cell invasion entry was “inhibition of cell invasion”.
